The supplement of paper PMC4862054

Legend:
Details in all cases: incubation time: 72 h
CAL-51 [1] = experiment: normalised response (% of control), CellTox Green; higher = less cell death (100 = DMSO, 0 = benzethonium chloride kill control)
Summary of the method: (§1)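 After 72 h with compound in 384-well plates, breast cancer cell lines seeded as 20 µl suspension were read for CellTox Green fluorescence at 485/520 nm. CellTiter-Glo luminescence was then read after 10 min at room temperature. Compound was present at 5 concentrations in 10-fold steps over a 10,000-fold range set per compound, and plates were normalised to 0.1 % DMSO (100) and a positive kill control (0). Values are normalised signals, each at a single concentration.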

CAL-120 [2] = experiment: as above
Summary of the method: as §1

DU-4475 [3] = experiment: as above
Summary of the method: as §1

Hs578T [4] = experiment: as above
Summary of the method: as §1

HCC1599 [5] = experiment: as above
Summary of the method: as §1

MCF-10A [6] = experiment: as above
Summary of the method: as §1

MDA-MB-468 [7] = experiment: as above
Summary of the method: as §1

CAL-148 [8] = experiment: as above
Summary of the method: as §1

CAL-85-1 [9] = experiment: as above
Summary of the method: as §1

MDA-MB-436 [10] = experiment: as above
Summary of the method: as §1

HCC1937 [11] = experiment: as above
Summary of the method: as §1

MDA-MB-453 [12] = experiment: as above
Summary of the method: as §1

BT-549 [13] = experiment: as above
Summary of the method: as §1

MFM-223 [14] = experiment: as above
Summary of the method: as §1

HDQ-P1 [15] = experiment: as above
Summary of the method: as §1

HCC1143 [16] = experiment: as above
Summary of the method: as §1

BT-474 [17] = experiment: as above
Summary of the method: as §1

MDA-MB-231 [18] = experiment: normalised response (% of control), CellTiter-Glo; higher = more viable cells (100 = DMSO, 0 = benzethonium chloride kill control)
Method: (§2)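 DSRT, 72 h incubation, CellTox Green / CellTiter-Glo readout. Signal is normalised to DMSO and benzethonium chloride controls. Value is the normalised response at the highest dose.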

CAL-51 [19] = experiment: as above
Method: as §2

CAL-120 [20] = experiment: as above
Method: as §2

DU-4475 [21] = experiment: as above
Method: as §2

Hs578T [22] = experiment: as above
Method: as §2

HCC1599 [23] = experiment: as above
Method: as §2

MCF-10A [24] = experiment: as above
Method: as §2

MDA-MB-468 [25] = experiment: as above
Method: as §2

SK-BR-3 = experiment: as above
Method: as §2

CAL-148 [26] = experiment: as above
Method: as §2

CAL-85-1 [27] = experiment: as above
Method: as §2

MDA-MB-436 [28] = experiment: as above
Method: as §2

HCC1937 [29] = experiment: as above
Method: as §2

MDA-MB-453 [30] = experiment: as above
Method: as §2

BT-549 [31] = experiment: as above
Method: as §2

MFM-223 [32] = experiment: as above
Method: as §2

HDQ-P1 [33] = experiment: as above
Method: as §2

HCC1143 [34] = experiment: as above
Method: as §2

BT-474 [35] = experiment: as above
Method: as §2

MDA-MB-231 [36] = experiment: normalised response (% of control), CellTox Green; higher = less cell death (100 = DMSO, 0 = benzethonium chloride kill control)
Summary of the method: as §1

| Compound | normalised response (CAL-51 [1]) [%] | normalised response (CAL-120 [2]) [%] | normalised response (DU-4475 [3]) [%] | normalised response (Hs578T [4]) [%] | normalised response (HCC1599 [5]) [%] | normalised response (MCF-10A [6]) [%] | normalised response (MDA-MB-468 [7]) [%] | normalised response (CAL-148 [8]) [%] | normalised response (CAL-85-1 [9]) [%] | normalised response (MDA-MB-436 [10]) [%] | normalised response (HCC1937 [11]) [%] | normalised response (MDA-MB-453 [12]) [%] | normalised response (BT-549 [13]) [%] | normalised response (MFM-223 [14]) [%] | normalised response (HDQ-P1 [15]) [%] | normalised response (HCC1143 [16]) [%] | normalised response (BT-474 [17]) [%] | normalised response (MDA-MB-231 [18]) [%] | normalised response (CAL-51 [19]) [%] | normalised response (CAL-120 [20]) [%] | normalised response (DU-4475 [21]) [%] | normalised response (Hs578T [22]) [%] | normalised response (HCC1599 [23]) [%] | normalised response (MCF-10A [24]) [%] | normalised response (MDA-MB-468 [25]) [%] | normalised response (SK-BR-3) [%] | normalised response (CAL-148 [26]) [%] | normalised response (CAL-85-1 [27]) [%] | normalised response (MDA-MB-436 [28]) [%] | normalised response (HCC1937 [29]) [%] | normalised response (MDA-MB-453 [30]) [%] | normalised response (BT-549 [31]) [%] | normalised response (MFM-223 [32]) [%] | normalised response (HDQ-P1 [33]) [%] | normalised response (HCC1143 [34]) [%] | normalised response (BT-474 [35]) [%] | normalised response (MDA-MB-231 [36]) [%] |
| --- | --- | --- | --- | --- | --- | --- | --- | --- | --- | --- | --- | --- | --- | --- | --- | --- | --- | --- | --- | --- | --- | --- | --- | --- | --- | --- | --- | --- | --- | --- | --- | --- | --- | --- | --- | --- | --- |
| CCN(CC)CCCC(C)Nc1c2ccc(Cl)cc2nc2ccc(OC)cc12 (stereo not drawn) [Mepacrine] (50000 nM) | 99.1 | 95.8 | 96.4 | 58.1 | 93.3 | 103 | 89.7 | 88 | 101 | 91.2 | 112 | 61.2 | 97.8 | 84.8 | 99.8 | 104 | 104 | 94.8 | 87.4 | 106 | 92.2 | 97.7 | 113 | 100 | 102 | 89.3 | 91 | 103 | 97 | 100 | 98.8 | 106 | 93.5 | 101 | 99.2 | 100 | – |
| Nc1nc2[nH]cc(CCc3ccc(C(=O)N[C@@H](CCC(=O)O)C(=O)O)cc3)c2c(=O)[nH]1 [Pemetrexed] (10000 nM) | 87 | 99.8 | 96.7 | 65.3 | 91.5 | 72 | – | 102 | 81.1 | 80.4 | 99 | 93 | 98.9 | 98.8 | 111 | 119 | 77.3 | 48 | 68.3 | 81.9 | 93.7 | 18.5 | 75.9 | 91.7 | 93.3 | 65.9 | 88.5 | 54.2 | 78.1 | 65.9 | 97.5 | 97.2 | 89.7 | 82.7 | 91 | 39 | 70.5 |
| CCCS(=O)(=O)Nc1ccc(F)c(C(=O)c2c[nH]c3ncc(-c4ccc(Cl)cc4)cc23)c1F [Vemurafenib] (10000 nM) | 65.3 | 97.3 | 77.1 | 71.5 | 95.8 | – | 148 | 75.7 | 109 | 92.7 | 78.4 | 101 | 89.5 | 97.7 | 98.9 | 100 | 95.4 | 86.3 | 78.4 | 91.1 | 2.81 | 70.7 | 86.4 | 95.8 | 57.2 | 71 | 94.7 | 85.1 | 66.8 | 84 | 89.3 | 71.8 | 80.1 | 70.7 | 86.1 | 82.6 | 87 |
